The values that follow come from PubChem BioAssay (NCI).

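Exposure lasted 48 hours, with cells grown in 96-well plates and compounds tested at five concentrations. GI50 = concentration required for 50% inhibition of growth. Definition used: TGI = concentration required for complete inhibition of growth.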

Test systems include CAKI-1 renal; EKVX NSCLC; HOP-62 NSCLC; HT29 colon; KM12 colon; M14 melanoma; MDA-N; NCI-H23 lung; SNB-75 CNS; CCRF-CEM leukemia; HS 578T breast.
Holding throughout (assay): NCI-60 cell line screen, 48 h

As for `CCCCCCCCCCCCCCCCCCNC(=S)/N=C/c1c(O)cc(C)oc1=O`, the TGI with CAKI-1 renal was 64.1 µM; in the experiment with EKVX NSCLC it was 57.9 µM; in the experiment on HOP-62 NSCLC it was over 100 µM; in the experiment on HT29 colon it was 76.8 µM; in the experiment with KM12 colon, 36.3 µM; with M14 melanoma it was 41.9 µM. Also, the TGI with MDA-N is over 100 µM; in the experiment on NCI-H23 lung, 47.8 µM; in the experiment with SNB-75 CNS it was 49.3 µM.

`CCN(CC)CCNC(=O)c1cc2cc(NC(=O)c3cc4cc(NC(=O)c5cc6cc([N+](=O)[O-])ccc6[nH]5)ccc4[nH]3)ccc2[nH]1`: the TGI with CAKI-1 renal was over 100 µM; with CCRF-CEM leukemia it was 67.3 µM; in the experiment with EKVX NSCLC it was over 100 µM; in the experiment on HOP-62 NSCLC, over 100 µM; in the experiment with HS 578T breast, over 100 µM; in the experiment with HT29 colon, over 100 µM. Moreover, the TGI in the experiment with KM12 colon, in the experiment on M14 melanoma, in the experiment with NCI-H23 lung and in the experiment with SNB-75 CNS was over 100 µM each time.

`Cc1ccc(-c2nc3n(c2/C=N\N=C(N)N)CCS3)cc1`: the TGI in the experiment on CAKI-1 renal stood at 34 µM; with CCRF-CEM leukemia, 55.9 µM; with EKVX NSCLC, 30.9 µM; with HOP-62 NSCLC, 28.6 µM; in the experiment on HS 578T breast it was 41.4 µM; with HT29 colon, 27.3 µM. The TGI is 28.5 µM with KM12 colon, 30.4 µM with NCI-H23 lung and 23.2 µM with SNB-75 CNS.

With `COc1ccc(C2c3c(-c4ccccc4)nn(-c4ccccc4)c3Oc3ncn(N)c(=N)c32)cc1OC` (stereo unspecified), the TGI in the experiment with CAKI-1 renal is 4.15 µM; in the experiment on CCRF-CEM leukemia it was over 100 µM; with EKVX NSCLC, 4.13 µM; in the experiment on HS 578T breast it was 4.37 µM; in the experiment on HT29 colon it was 4.32 µM; with KM12 colon, 3.33 µM. For the same compound, the TGI with M14 melanoma was determined as 4.17 µM; with NCI-H23 lung, 6.66 µM; in the experiment with SNB-75 CNS it was 3.92 µM.

Turning to `Cc1cc(C)c(N)c(C)c1N`, the TGI with CCRF-CEM leukemia, in the experiment on EKVX NSCLC, in the experiment with HOP-62 NSCLC, in the experiment on KM12 colon, with M14 melanoma and in the experiment on NCI-H23 lung was over 100 µM in each case.

As to `CCOC(=O)CC(=Nc1cc(C)on1)N(CC)CC`, the TGI in the experiment with CAKI-1 renal, with CCRF-CEM leukemia, in the experiment with EKVX NSCLC, with HOP-62 NSCLC, in the experiment with HT29 colon and with KM12 colon was over 100 µM in each case. Moreover, the TGI with M14 melanoma, in the experiment on NCI-H23 lung and in the experiment on SNB-75 CNS was over 100 µM throughout.

For `[N-]=[N+]=NC(c1cn(C2CC(O)C(CO)O2)c(=O)[nH]c1=O)C(I)I` (stereo unspecified), the TGI with CAKI-1 renal, in the experiment with CCRF-CEM leukemia, with EKVX NSCLC, with HOP-62 NSCLC, in the experiment on HT29 colon and in the experiment on KM12 colon was over 100 µM each time. The TGI with M14 melanoma and in the experiment with NCI-H23 lung was over 100 µM in each case.

Take `O=C(/C=C\c1ccc(OCCCCCC[P+](c2ccccc2)(c2ccccc2)c2ccccc2)cc1)c1ccc2c(c1)OCCO2`: the GI50 is 1.84 µM with CAKI-1 renal; 1.22 µM in the experiment on CCRF-CEM leukemia; 1.5 µM with EKVX NSCLC; 0.827 µM with HS 578T breast; 0.912 µM with HT29 colon; 0.623 µM with SNB-75 CNS. Also, the TGI in the experiment on CAKI-1 renal was 3.88 µM; with CCRF-CEM leukemia it was 6.15 µM; in the experiment on EKVX NSCLC, 6.72 µM; with HS 578T breast, 5.02 µM; in the experiment on HT29 colon it was 3.24 µM; in the experiment on SNB-75 CNS it was 2.72 µM.

For the compound `C=CC[C@@]1(C#N)C[C@H](C[C@]2(C#N)C[C@H](CCl)OC(C)(C)O2)OC(C)(C)O1`, the TGI in the experiment on CAKI-1 renal, in the experiment with CCRF-CEM leukemia, in the experiment on EKVX NSCLC, in the experiment on HOP-62 NSCLC, with HT29 colon and with KM12 colon was over 100 µM each time. Further, the TGI in the experiment with M14 melanoma, with NCI-H23 lung and with SNB-75 CNS was over 100 µM each time.

On to `CCCCCCCCC[C@@H]1C[C@@H]2CCC3C(C(=O)OCCCCNC(=O)OCc4ccccc4)=C(C)NC(=N1)N32` (stereo partly specified), for which the TGI in the experiment on CAKI-1 renal stood at 14.9 µM; in the experiment on CCRF-CEM leukemia, 8.93 µM; in the experiment on EKVX NSCLC, 7.76 µM; with HOP-62 NSCLC, 10.3 µM; in the experiment on HS 578T breast, 5.48 µM; with HT29 colon, 12.9 µM. Besides, the TGI with KM12 colon is 13.7 µM; in the experiment on M14 melanoma, 6.97 µM; with NCI-H23 lung, 6.78 µM; in the experiment with SNB-75 CNS it was 16.9 µM.

For the compound `Cc1ccc(C(=O)NC(C)C)cc1N=NN(C)C`, the TGI in the experiment with CAKI-1 renal, in the experiment on EKVX NSCLC, with HOP-62 NSCLC, in the experiment with HT29 colon, in the experiment on KM12 colon and with M14 melanoma was over 100 µM in each case. Also, in the experiment with NCI-H23 lung, the TGI was over 100 µM.

Consider `O=C(Cc1ccccc1)NN1C(=O)C(Cl)C1c1ccccc1` (stereo unspecified), for which the TGI was over 100 µM in the experiment on CAKI-1 renal; 71.4 µM in the experiment with CCRF-CEM leukemia; over 100 µM in the experiment on EKVX NSCLC; over 100 µM in the experiment with HOP-62 NSCLC; over 100 µM with HT29 colon; over 100 µM with KM12 colon. Moreover, the TGI with M14 melanoma, with NCI-H23 lung and in the experiment on SNB-75 CNS was over 100 µM each time.

As for `CC(C)(CO)NC(=O)c1cccc(C(=O)NC(C)(C)CO)c1Br`, the TGI in the experiment on CAKI-1 renal, with EKVX NSCLC, in the experiment on HOP-62 NSCLC, in the experiment with HT29 colon, in the experiment on KM12 colon and with M14 melanoma was over 100 µM in each case. The TGI with NCI-H23 lung and with SNB-75 CNS was over 100 µM throughout.

Take `CC1(C)CC(=O)C2=C(C1)N(c1ccccc1)C1(O)C=CC(=O)C3=C(O)c4ccccc4C(=O)C321` (stereo unspecified): the TGI with CAKI-1 renal was 86 µM; in the experiment with CCRF-CEM leukemia, over 100 µM; with EKVX NSCLC it was over 100 µM; in the experiment on HOP-62 NSCLC it was over 100 µM; in the experiment on HT29 colon it was 54 µM; in the experiment with KM12 colon, 86.3 µM. Also, the TGI was over 100 µM in the experiment on M14 melanoma, 84 µM in the experiment with NCI-H23 lung and 48.6 µM in the experiment on SNB-75 CNS.

With `CC[S+](C)c1ccc(-c2c3nc(c(-c4ccc([S+](C)CC)cc4)c4ccc([nH]4)c(-c4ccc([S+](C)CC)cc4)c4nc(c(-c5ccc([S+](C)CC)cc5)c5ccc2[nH]5)C=C4)C=C3)cc1` (stereo unspecified), the TGI in the experiment with CAKI-1 renal was over 100 µM; with CCRF-CEM leukemia, over 100 µM; in the experiment with EKVX NSCLC it was 94.8 µM; in the experiment on HOP-62 NSCLC, 93.5 µM; with HT29 colon, over 100 µM; in the experiment with KM12 colon it was over 100 µM. Besides, the TGI with M14 melanoma, with NCI-H23 lung and in the experiment with SNB-75 CNS was over 100 µM each time.

Regarding `CCc1c(-c2coc(CC/C(C)=C/c3ccccc3)n2)oc(OC)c(C)c1=O`, the TGI in the experiment with CAKI-1 renal was over 100 µM; with CCRF-CEM leukemia it was over 100 µM; with EKVX NSCLC, over 100 µM; in the experiment on HOP-62 NSCLC, over 100 µM; in the experiment with HT29 colon it was over 31.6 µM; with KM12 colon, over 100 µM. Besides, the TGI with M14 melanoma is over 61.4 µM; with NCI-H23 lung, over 95.4 µM; in the experiment on SNB-75 CNS it was over 100 µM.

In the case of `O=C(O)C1Cc2ccccc2OC1=O` (stereo unspecified), the TGI with CAKI-1 renal, with EKVX NSCLC, in the experiment with HOP-62 NSCLC, with HS 578T breast, in the experiment with HT29 colon and in the experiment with KM12 colon was over 100 µM throughout. The TGI in the experiment with M14 melanoma and in the experiment with NCI-H23 lung was over 100 µM throughout.

For the compound `Nc1ccc(S(=O)(=O)c2ccc(N=[N+]([O-])c3ccc(S(=O)(=O)c4ccc(N)cc4)cc3)cc2)cc1`, the TGI in the experiment on CAKI-1 renal was over 100 µM; with CCRF-CEM leukemia it was over 100 µM; in the experiment on EKVX NSCLC, over 100 µM; in the experiment with HOP-62 NSCLC, over 54.3 µM; with HS 578T breast, over 74.7 µM; in the experiment on HT29 colon, over 100 µM. Moreover, the TGI was over 100 µM with KM12 colon, over 100 µM in the experiment with M14 melanoma, over 82.8 µM in the experiment on NCI-H23 lung and 37.1 µM with SNB-75 CNS.

With `Cc1ccc(C(=O)/C=C/N2CCN(c3cccc(C(F)(F)F)c3)CC2)cc1`, the TGI was found to be 37 µM in the experiment on CAKI-1 renal; 41.8 µM in the experiment with EKVX NSCLC; 37.4 µM in the experiment with HOP-62 NSCLC; 51.4 µM in the experiment with HS 578T breast; 35.8 µM with HT29 colon; 38.1 µM in the experiment on KM12 colon. Also, the TGI was 30.5 µM in the experiment with M14 melanoma, 31 µM in the experiment with NCI-H23 lung and 34.7 µM with SNB-75 CNS.

In the case of `FC(F)(F)c1nc2cc(SSc3cc4nc(C(F)(F)F)[nH]c4cc3Cl)c(Cl)cc2[nH]1`, the TGI with CAKI-1 renal, with EKVX NSCLC, in the experiment with HOP-62 NSCLC, with HS 578T breast, with HT29 colon and with M14 melanoma was over 100 µM each time. Moreover, the TGI in the experiment with NCI-H23 lung is over 100 µM.

In the case of `CC(C(O)c1ccccc1)[N+](=O)[O-]` (stereo unspecified), the TGI in the experiment with CAKI-1 renal is 30.6 µM; in the experiment on CCRF-CEM leukemia, over 100 µM; with EKVX NSCLC, over 100 µM; with HOP-62 NSCLC it was over 100 µM; with HS 578T breast it was 98.7 µM; with HT29 colon it was 71.8 µM. For the same compound, the TGI in the experiment with KM12 colon is 50.6 µM; with M14 melanoma, 72 µM; in the experiment on NCI-H23 lung, over 100 µM; with SNB-75 CNS, over 100 µM.
